Each compound was assayed against T1, Carbonic anhydrase (Candida glabrata CBS 138, UniProt Q6FTL6) (assay: Inhibition of Candida glabrata carbonic anhydrase by stopped flow CO2 hydration assay).
T1 sequence (Q6FTL6 whole entry): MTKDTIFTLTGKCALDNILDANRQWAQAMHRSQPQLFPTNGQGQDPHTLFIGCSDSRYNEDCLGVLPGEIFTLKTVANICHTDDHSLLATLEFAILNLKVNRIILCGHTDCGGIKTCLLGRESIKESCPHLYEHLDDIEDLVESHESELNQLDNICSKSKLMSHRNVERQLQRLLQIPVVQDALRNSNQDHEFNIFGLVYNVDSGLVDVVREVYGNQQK
Design: species or system Nakaseomyces glabratus

Ki [µM] | SMILES
110 | NS(=O)(=O)O [SODIUM SULFAMATE]
420 | NS(N)(=O)=O [SULFAMIDE]
100 | OB(O)c1ccccc1 [PHENYLBORONIC ACID]

Source: ChEMBL document CHEMBL1154023, “Carbonic anhydrase inhibitors. Inhibition of the beta-class enzyme from the pathogenic yeast Candida glabrata with anions” (Bioorg Med Chem Lett, 2009)
